Laboratory results reported in the OligoGym collection.
Values joined by “and” are separate entries in the source; they are usually repeats but may differ in a detail not shown here. Equal entries are not always repeated. After the bases stand the sugars from the 5' end (letter, count) and the backbone: PS all phosphorothioate, else s phosphorothioate and o phosphodiester by linkage. Methylation of C is not given here. e = 2'-O-(2-methoxyethyl) (MOE); k = constrained ethyl (cEt); d = 2'-deoxy (DNA)

target: IRF4; conditions: ASO, MM.1R, 0.0625 µM

Sequence | target mRNA inhibition
ATTATATACTGGTTGG (sugars k3 d10 k3, PS) | 3% and 9%

same assay, conditions: ASO, MM.1R, 0.25 µM

Sequence | target mRNA inhibition
ATTATATACTGGTTGG (sugars k3 d10 k3, PS) | 15% and 25%

same assay, conditions: ASO, MM.1R, 1 µM

Sequence | target mRNA inhibition
ATATGGCTAAACCTGG (sugars k3 d10 k3, PS) | 18%
ATCACCGAACACACCA (sugars k3 d10 k3, PS) | -12%
ATCATCCGAAAAGACT (sugars k3 d10 k3, PS) | 4%
ATCCCTTATTAGACTG (sugars k3 d10 k3, PS) | -7%
ATCTGAGACTACACCT (sugars k3 d10 k3, PS) | -8%
ATGAACCCTAAGTTTA (sugars k3 d10 k3, PS) | -4%
ATGAGGGACCAGAACT (sugars k3 d10 k3, PS) | 6%
ATGCCATGGACAAGTT (sugars k3 d10 k3, PS) | 18%
ATGCGGAGGTTCCTTG (sugars k3 d10 k3, PS) | 47% and 52%
ATGCTGAACCCCACAG (sugars k3 d10 k3, PS) | 16%
ATGGCAAAAGACCAAT (sugars k3 d10 k3, PS) | -5%
ATGGCGCATAGGTCCT (sugars k3 d10 k3, PS) | -5%
ATGGCTAAACCTGGCA (sugars k3 d10 k3, PS) | 22%
ATGTAAAGTCTGCTGA (sugars k3 d10 k3, PS) | 20%
ATGTGATAGCTGAGCT (sugars kdddddddddkekeke, PS) | 15%
ATGTGATAGCTGAGCT (sugars kkdddddddddekeke, PS) | 2%
ATGTGATAGCTGAGCT (sugars kkdddddddddkdkdk, PS) | 27%
ATGTGTATTACTCTTA (sugars k2 d9 e3 k2, PS) | 40% and 44%
ATGTGTATTACTCTTA (sugars kkdddddddddekeke, PS) | 60% and 61%
ATGTTAGCCAATTCCT (sugars kddddddddddkekek, PS) | 0% and 7%
ATTACTCTTAGGCACA (sugars k3 d10 k3, PS) | 30%
ATTATATACTGGTTGG (sugars k3 d10 k3, PS) | 39% and 57%
ATTATATACTGGTTGG (sugars kddddddddddkekek, PS) | 22%

same assay, conditions: ASO, MM.1R, 4 µM

Sequence | target mRNA inhibition
ATTATATACTGGTTGG (sugars k3 d10 k3, PS) | 77% and 74%

same assay, conditions: ASO, SK-MEL-28, 4 µM

Sequence | target mRNA inhibition [%]
ATATAGTTGTCTGGCT (sugars k3 d10 k3, PS) | 41
ATATATGACGACTTAA (sugars k3 d10 k3, PS) | 6
ATATCCTGTAGTATGA (sugars k3 d10 k3, PS) | 57
ATATTAGAGACTGTAT (sugars k3 d10 k3, PS) | 25
ATCAGAATGTTTCGAC (sugars k3 d10 k3, PS) | 46
ATCGAATCTGCCCAAA (sugars k3 d10 k3, PS) | 26
ATCTAAGGCAAGCTGA (sugars k3 d10 k3, PS) | 37
ATCTACCTCAGTTTGT (sugars k3 d10 k3, PS) | 42
ATCTGGATGAGCTTAC (sugars k3 d10 k3, PS) | 38
ATGAAAGTGTGTGCAA (sugars k3 d10 k3, PS) | 64
ATGAACGGAAGTTTAC (sugars k3 d10 k3, PS) | 54
ATGACATGCTTTGTCC (sugars k3 d10 k3, PS) | 46
ATGAGAAACGGCCTGG (sugars k3 d10 k3, PS) | 64
ATGAGAACTTTGATGT (sugars k3 d10 k3, PS) | 15
ATGCGAAGAATTTTAG (sugars k3 d10 k3, PS) | 21
ATGGAAATACGACAAC (sugars k3 d10 k3, PS) | 35
ATGTAGTTGTGAACCT (sugars k3 d10 k3, PS) | 39
ATGTATACCAACGACA (sugars k3 d10 k3, PS) | 63
ATGTGGAGCTCCTCCT (sugars k3 d10 k3, PS) | 20
ATTAAAGAGCGCATTT (sugars k3 d10 k3, PS) | 13
